Reference: ChEMBL document CHEMBL3832547, “Goodman and Gilman Ed. 12 | The Pharmaceutical Basis of Therapeutics| Table AII-I: Pharmacokinetic Data” (2011)

What was measured:
[1] = (§1) Pharmacokinetic parameters for Letrozole evaluated following single oral administration of Letrozole tablets; assay type: ADME, organism-based; parameters: dose 2.5 mg, route oral; details: human, in vivo, 2.5 mg
Homo sapiens = experiment: as §1; assay type: ADME, organism-based; parameters: dose 2.5 mg, route oral; details: in vivo

## N#Cc1ccc(C(c2ccc(C#N)cc2)n2cncn2)cc1 [LETROZOLE]
[1]
  CL/F: 0.58 mL/min/kg
  Cmax: 115 nM
  Tmax: 1 h
[1]; read-out: Excretion
  dose excreted: 3.9%
Homo sapiens
  Vd: 1.87 L/kg
